Drawing on ChEMBL document CHEMBL3879881, “Substituted pyrazolyl compounds for the treatment of inflammation” (2005), this text covers IC50 for 66 compounds.

Structures are written as SMILES.

The target of the experiment is T1, Inhibitor of nuclear factor kappa-B kinase subunit beta (Homo sapiens, UniProt O14920).
T1 sequence (O14920 whole entry): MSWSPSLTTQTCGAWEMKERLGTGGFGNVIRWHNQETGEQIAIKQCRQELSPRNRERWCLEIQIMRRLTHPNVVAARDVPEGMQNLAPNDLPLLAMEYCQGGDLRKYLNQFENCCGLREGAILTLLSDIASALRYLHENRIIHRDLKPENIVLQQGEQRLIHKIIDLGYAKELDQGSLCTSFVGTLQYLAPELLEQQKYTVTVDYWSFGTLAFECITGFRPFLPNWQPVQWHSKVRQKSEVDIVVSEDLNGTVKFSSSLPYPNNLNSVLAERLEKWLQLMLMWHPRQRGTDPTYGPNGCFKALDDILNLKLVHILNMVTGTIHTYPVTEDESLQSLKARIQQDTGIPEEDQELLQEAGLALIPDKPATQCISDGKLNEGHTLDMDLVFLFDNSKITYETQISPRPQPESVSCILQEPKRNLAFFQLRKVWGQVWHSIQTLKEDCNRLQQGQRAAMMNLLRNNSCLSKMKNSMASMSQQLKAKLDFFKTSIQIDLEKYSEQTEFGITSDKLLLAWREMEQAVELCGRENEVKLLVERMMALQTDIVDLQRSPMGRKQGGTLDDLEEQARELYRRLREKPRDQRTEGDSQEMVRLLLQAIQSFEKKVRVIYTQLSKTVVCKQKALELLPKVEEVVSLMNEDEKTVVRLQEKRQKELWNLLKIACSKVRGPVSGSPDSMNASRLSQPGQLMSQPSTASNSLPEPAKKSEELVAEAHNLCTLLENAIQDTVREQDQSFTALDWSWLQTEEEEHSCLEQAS
Put plainly: Inhibition of human recombinant C-terminal FLAG-epitope-tagged IKK2 expressed in baculovirus using biotinylated IkappaBalpha peptide as substrate assessed as decrease in [gamma-33P]-ATP incorporation in substrate after 30 mins by scintillation counting method.

As a reminder, the IC50 is the midpoint of a concentration-inhibition curve. With `NC(=O)c1nn(-c2ccc(S(=O)(=O)C(F)(F)F)cc2)c2c1CCc1ccc(N)cc1-2`, the concentration for half-maximal inhibition (IC50) fell in the range of 1000 to 10000 nM. With `NC(=O)c1nn(-c2ccc(-c3cccc(C(=O)O)c3)cc2)c2c1CCc1ccc(NC(=O)c3ccccc3Cl)cc1-2` the figure was 1000 to 10000 nM.

For the compound `NC(=O)c1nn(-c2cc(F)cc(F)c2)c2c1CCc1ccc(NC(=O)c3cccc(Cl)c3Cl)cc1-2`, the IC50 is 1000 to 10000 nM. For `NC(=O)c1nn(-c2ccc(O)cc2)c2c1CCc1ccc(NC(=O)c3cc4c(cc3Cl)OCO4)cc1-2` the value was at most 1000 nM; for `CN(C)CCC(=O)Nc1ccc(-n2nc(C(N)=O)c3c2-c2cc(NC(=O)c4ccccc4Cl)ccc2CC3)cc1`, 1000 to 10000 nM.

As for `CC(C)(C)C(=O)ONCCCCC(=O)Nc1ccc(-n2nc(C(N)=O)c3c2-c2cc(NC(=O)c4ccccc4Cl)ccc2CC3)cc1`, the IC50 was in the range of 1000 to 10000 nM. For `CC(=O)Oc1cccc(C(=O)Nc2ccc3c(c2)-c2c(c(C(N)=O)nn2-c2cccc(F)c2)CC3)c1C` the value was 1000 to 10000 nM.

Take `NC(=O)c1nn(-c2ccc(/C=C3\CCOC3=O)cc2)c2c1CCc1ccc(NC(=O)c3ccccc3Cl)cc1-2`: the IC50 fell in the range of 1000 to 10000 nM. On to `NC(=O)c1nn(-c2cccc(F)c2)c2c1CCc1ccc(NC(=O)c3cccc(Cl)c3F)cc1-2`, for which the IC50 fell in the range of 1000 to 10000 nM.

For the compound `NC(=O)c1nn(-c2cccc([N+](=O)[O-])c2)c2c1CCc1ccc(NC(=O)c3ccccc3Cl)cc1-2`, the half-inhibitory concentration (IC50) was in the range of 1000 to 10000 nM. For `NC(=O)c1nn(-c2ccc(C(F)(F)F)cc2)c2c1CCc1ccc(NC(=O)c3ccccc3Cl)cc1-2` the value was 1000 to 10000 nM. For the compound `CN(C)C(=O)/C=C/c1ccc(-n2nc(C(N)=O)c3c2-c2cc(NC(=O)c4cccnc4Cl)ccc2CC3)cc1`, the IC50 is 1000 to 10000 nM. In the case of `CS(=O)(=O)Nc1ccc2c(c1)-c1c(c(C(N)=O)nn1-c1ccccc1)CC2`, the IC50 fell in the range of 1000 to 10000 nM. For `CCCS(=O)(=O)c1ccc(-n2nc(C(N)=O)c3c2-c2cc(NC(=O)c4cc(N)ccc4Cl)ccc2CC3)cc1` the value was at most 1000 nM; for `CCCS(=O)(=O)c1ccc(-n2nc(C(N)=O)c3c2-c2cc(NC(=O)c4cccnc4Cl)ccc2CC3)cc1`, 1000 to 10000 nM; for `CNC(=O)/C=C/c1ccc(-n2nc(C(N)=O)c3c2-c2cc(N)ccc2CC3)cc1`, 1000 to 10000 nM. For `CC(=O)c1ccc(-n2nc(C(N)=O)c3c2-c2cc(NC(=O)c4cccnc4Cl)ccc2CC3)cc1` the value was 1000 to 10000 nM; for `NC(=O)c1nn(-c2cccc(F)c2)c2c1CCc1ccc(NC(=O)c3cccc(Cl)c3Cl)cc1-2`, 1000 to 10000 nM. Take `NC(=O)c1nn(-c2ccc(C(=O)O)cc2)c2c1CCc1ccc(NC(=O)c3ccccc3Cl)cc1-2`: the half-maximal inhibitory concentration (IC50) lay within 1000 to 10000 nM. For `CN(C)C(=O)/C=C/c1ccc(-n2nc(C(N)=O)c3c2-c2cc(NS(C)(=O)=O)ccc2CC3)cc1` the value was 1000 to 10000 nM; for `NC(=O)c1nn(-c2cc(F)c(N)cc2F)c2c1CCc1ccc(NC(=O)c3ccncc3Cl)cc1-2`, at most 1000 nM; for `NC(=O)c1nn(-c2cccc(Cl)c2)c2c1CCc1ccc(NC(=O)c3ccccc3Cl)cc1-2`, at most 1000 nM.

As for `NC(=O)c1nn(-c2ccc(NC(=O)c3ccccc3)cc2)c2c1CCc1ccc(NC(=O)c3ccccc3Cl)cc1-2`, the IC50 is 1000 to 10000 nM. With `NC(=O)c1nn(-c2ccc(-c3cccnc3)cc2)c2c1CCc1ccc(NC(=O)c3ccccc3Cl)cc1-2` the figure was 1000 to 10000 nM; with `NC(=O)c1nn(-c2ccc(-c3cccc(CO)c3)cc2)c2c1CCc1ccc(NC(=O)c3ccccc3Cl)cc1-2`, 1000 to 10000 nM. For `CS(=O)(=O)Nc1ccc2c(c1)-c1c(c(C(N)=O)nn1-c1cccc(O)c1)CC2` the value was 1000 to 10000 nM; for `NC(=O)/C=C/c1ccc(-n2nc(C(N)=O)c3c2-c2cc(NC(=O)c4cccnc4Cl)ccc2CC3)cc1`, at most 1000 nM. With `Cc1ccccc1C(=O)Nc1ccc2c(c1)-c1c(c(C(N)=O)nn1-c1ccc(Br)cc1)CC2` the figure was at most 1000 nM; with `CC(=O)/C=C/c1ccc(-n2nc(C(N)=O)c3c2-c2cc(NC(=O)c4ccccc4Cl)ccc2CC3)cc1`, at most 1000 nM; with `C[S+]([O-])c1ccc(Cl)c(C(=O)Nc2ccc3c(c2)-c2c(c(C(N)=O)nn2-c2ccc(O)cc2)CC3)c1` (stereo unspecified), at most 1000 nM. Take `CNC(=O)/C=C/c1ccc(-n2nc(C(N)=O)c3c2-c2cc(NS(C)(=O)=O)ccc2CC3)cc1`: the IC50 is at most 1000 nM. For `CC(=O)CCc1ccc(-n2nc(C(N)=O)c3c2-c2cc(NS(C)(=O)=O)ccc2CC3)cc1` the value was 1000 to 10000 nM; for `NC(=O)c1nn(-c2ccc(F)c(F)c2)c2c1CCc1ccc(NC(=O)c3cccc(Cl)c3Cl)cc1-2`, 1000 to 10000 nM.

Turning to `NC(=O)c1nn(-c2ccc(-c3ccc(C(=O)O)cc3)cc2)c2c1CCc1ccc(NC(=O)c3ccccc3Cl)cc1-2`, the IC50 was 1000 to 10000 nM. With `COc1ccc(-c2ccc(-n3nc(C(N)=O)c4c3-c3cc(NC(=O)c5ccccc5Cl)ccc3CC4)cc2)cc1OC` the figure was 1000 to 10000 nM; with `NC(=O)c1nn(-c2ccc(O)cc2)c2c1CCc1ccc(NC(=O)c3cc([N+](=O)[O-])ccc3Cl)cc1-2`, at most 1000 nM. Regarding `NC(=O)c1nn(-c2cc(F)cc(F)c2)c2c1CCc1ccc(NC(=O)c3ccccc3Cl)cc1-2`, the IC50 is at most 1000 nM. Turning to `NC(=O)c1nn(-c2ccc(NC(=O)COCc3ccccc3)cc2)c2c1CCc1ccc(NC(=O)c3ccccc3Cl)cc1-2`, the IC50 is 1000 to 10000 nM.

For the compound `NC(=O)c1nn(-c2cccnc2)c2c1CCc1ccc(NC(=O)c3ccccc3Cl)cc1-2`, the IC50 was 1000 to 10000 nM.

As for `NC(=O)c1nn(-c2ccc(-n3cccc3)cc2)c2c1CCc1ccc(NC(=O)c3ccccc3Cl)cc1-2`, the IC50 was 1000 to 10000 nM. For `CCS(=O)(=O)c1ccc(-n2nc(C(N)=O)c3c2-c2cc(NS(C)(=O)=O)ccc2CC3)cc1` the value was 1000 to 10000 nM; for `CN(C)C/C=C/c1ccc(-n2nc(C(N)=O)c3c2-c2cc(NC(=O)c4ccccc4Cl)ccc2CC3)cc1`, 1000 to 10000 nM; for `Cc1cccc(-n2nc(C(N)=O)c3c2-c2cc(NC(=O)c4ccccc4Cl)ccc2CC3)c1`, at most 1000 nM. With `NC(=O)c1nn(-c2ccc(Cl)cc2)c2c1CCc1ccc(NC(=O)c3ccccc3Cl)cc1-2` the figure was at most 1000 nM; with `NC(=O)c1nn(-c2ccc(Cl)c(Cl)c2)c2c1CCc1ccc(NC(=O)c3ccccc3Cl)cc1-2`, 1000 to 10000 nM; with `NC(=O)c1nn(-c2ccc(OC(F)(F)F)cc2)c2c1CCc1ccc(NC(=O)c3ccccc3Cl)cc1-2`, 1000 to 10000 nM. For `CC(C)(O)/C=C/c1ccc(-n2nc(C(N)=O)c3c2-c2cc(NC(=O)c4cccnc4Cl)ccc2CC3)cc1` the value was 1000 to 10000 nM; for `NC(=O)c1nn(-c2ccc(CCCO)cc2)c2c1CCc1ccc(NC(=O)c3cccnc3Cl)cc1-2`, at most 1000 nM. In the case of `CC(O)c1ccc(-n2nc(C(N)=O)c3c2-c2cc(NC(=O)c4cccnc4Cl)ccc2CC3)cc1` (stereo unspecified), the IC50 was at most 1000 nM.

For the compound `COc1cccc(-n2nc(C(N)=O)c3c2-c2cc(NC(=O)c4ccccc4Cl)ccc2CC3)c1`, the 50% inhibitory concentration (IC50) was 1000 to 10000 nM. Take `NC(=O)c1nn(-c2ccc(/C=C/C(=O)NCc3ccccc3)cc2)c2c1CCc1ccc(NC(=O)c3ccccc3Cl)cc1-2`: the IC50 lay within 1000 to 10000 nM. With `CC(C)c1ccc(-n2nc(C(N)=O)c3c2-c2cc(NC(=O)c4ccccc4Cl)ccc2CC3)cc1` the figure was 1000 to 10000 nM; with `NC(=O)c1nn(-c2ccc(-c3cccc(N)c3)cc2)c2c1CCc1ccc(NC(=O)c3ccccc3Cl)cc1-2`, 1000 to 10000 nM; with `CC1(C)OCC(COc2ccc(-n3nc(C(N)=O)c4c3-c3cc(NC(=O)c5cccnc5Cl)ccc3CC4)cc2)O1` (stereo unspecified), 1000 to 10000 nM. Turning to `C#Cc1ccc(-n2nc(C(N)=O)c3c2-c2cc(NC(=O)c4cccnc4Cl)ccc2CC3)cc1`, the IC50 lay within 1000 to 10000 nM. For `CC1(C)OCC(COc2ccc(-n3nc(C(N)=O)c4c3-c3cc(NC(=O)c5ccncc5Cl)ccc3CC4)cc2)O1` (stereo unspecified) the value was 1000 to 10000 nM. Regarding `NC(=O)c1nn(-c2ccc(-c3ccoc3)cc2)c2c1CCc1ccc(NC(=O)c3ccccc3Cl)cc1-2`, the IC50 fell in the range of 1000 to 10000 nM. For `NC(=O)c1nn(-c2cc(F)c(N)c(F)c2)c2c1CCc1ccc(NC(=O)c3ccncc3Cl)cc1-2` the value was at most 1000 nM; for `NCCCS(=O)(=O)c1ccc(-n2nc(C(N)=O)c3c2-c2cc(NC(=O)c4cccnc4Cl)ccc2CC3)cc1`, 1000 to 10000 nM; for `NC(=O)c1nn(-c2ccc(Cl)cc2)c2c1CCc1ccc(NC(=O)c3cnccc3Cl)cc1-2`, at most 1000 nM. For `NC(=O)c1nn(-c2ccc(Br)cc2)c2c1CCc1ccc(N)cc1-2` the value was 1000 to 10000 nM; for `NC(=O)c1nn(-c2ccc(C(F)(F)F)cc2)c2c1CCc1ccc(N)cc1-2`, 1000 to 10000 nM. For `CCOC(=O)/C=C/c1ccc(-n2nc(C(N)=O)c3c2-c2cc(NC(=O)c4ccccc4Cl)ccc2CC3)cc1` the value was 1000 to 10000 nM. As to `NC(=O)c1nn(-c2ccc(NC(=O)c3ccccc3Cl)cc2)c2c1CCc1ccc(NC(=O)c3ccccc3Cl)cc1-2`, the IC50 was 1000 to 10000 nM. Take `NC(=O)c1nn(-c2cccc(F)c2)c2c1CCc1ccc(NC(=O)c3cccc(F)c3F)cc1-2`: the IC50 lay within 1000 to 10000 nM. For `NC(=O)c1nn(-c2cccc(O)c2)c2c1CCc1ccc(NC(=O)c3cc(N)ccc3Cl)cc1-2` the value was at most 1000 nM.
